Data taken from patent publication US20210047622A1, “METHOD FOR OBTAINING AN ANIMAL MODEL FROM CONDITIONALLY REPROGRAMMED CELLS AND USE OF THE ANIMAL MODEL FOR SCREEING ANTI-TUMOR DRUGS” (Shanghai Lide Biotech Co., Ltd., priority 2018, published 2021).
“And” between values parts separate entries of the source, which are not always exact repeats. Identical values can stand only once.

Key:
Type in all cases: in vivo, human
[1] = test system: MDX164 Mini-PDX models (conditional reprogramming cells from a glioblastoma patient); test: Anti-tumor efficacy in MDX164 Mini-PDX model; conditions: Mini-PDX devices s.c. in nude mice, CTG cell viability day 7, 50 mg/kg p.o. qd*5
Text: (§1) The inoculation day was defined as day 0.

[2] = test system: MDX165 Mini-PDX models (conditional reprogramming cells from a glioblastoma patient); test: Anti-tumor efficacy in MDX165 Mini-PDX model; conditions: Mini-PDX devices s.c. in nude mice, CTG cell viability day 7, 50 mg/kg p.o. qd*5
Text: as §1

[3] = test system: MDX123 Mini-PDX models (conditional reprogramming cells from a colonrectal cancer patient); test: Anti-tumor efficacy in MDX123 Mini-PDX model; conditions: Mini-PDX devices s.c. in nude mice, CTG cell viability day 7, i.p., doses and schedules per Table 5
Text: as §1

[4] = test system: MDX095 Mini-PDX models (conditional reprogramming cells from a peritoneal malignant tnesoshelioma patient); test: Anti-tumor efficacy in MDX095 Mini-PDX model; conditions: Mini-PDX devices s.c. in nude mice, CTG cell viability day 7, i.p., doses and schedules per Table 3
Text: Conditional reprogramming cells from […]123 were collected separately. […] The inoculation day was defined as day 0.

[5] = test system: MDX133 Mini-PDX models (conditional reprogramming cells from a gastric cancer patient); test: Anti-tumor efficacy in MDX133 Mini-PDX model; conditions: Mini-PDX devices s.c. in nude mice, CTG cell viability day 7, doses, routes and schedules per Table 6
Text: (§2) Conditional reprogramming cells from MDX133, MDX154, MDX164, MDX165, MDX168, MDX169, MDX174, MDX186, MDX189, MDX203 were collected separately. MDX133 originated from a gastric cancer patient, MDX154 model originated from a gallbladder carcinoma patient, MDX164 model originated from a glioblastoma patient, MDX165 model originated from a glioblastoma patient, MDX168 model originated from a gallbladder carcinoma patient, MDX169 model originated from a lung cancer patient, MDX174 model originated from a lung cancer patient, MDX186 model originated from a pancreatic cancer patient, MDX189 model originated from a esophagus cancer patient, MDX203 model originated from a gallbladder carcinoma patient.
(§3) Wash the tumor tissue sample with buffer solution and remove away non-tumor tissue and necrotic tumor tissue in biosafety cabinet. Cut the tumor into 1˜3 mm3 fragments, suspend pellet with 1× collagenase solution and incubate in 37° C. for 1-2 hours. Collect single cells through 70 uM strainer, count cell numbers to calculate tumor cell concentration (See 9. Tumor cell concentration obtained from surgery and biopsy/needle biopsy). Cultivate the cells with conditional reprogramming medium, after tumor cells proliferation, and harvest the conditional reprogramming cells.
(§4) Suspend tumor tissues obtained from biopsy/needle biopsy in 1× collagenase solution and incubate in 37° C. for 1-2 hours. Collect single cells through 70 uM strainer, count cell numbers to calculate tumor cell concentration (See 9. Tumor cell concentration obtained from surgery and biopsy/needle biopsy). Cultivate the cells with conditional reprogramming medium, after tumor cells proliferation, and harvest the conditional reprogramming cells.
(§5) The cells suspension was filled into Mini-PDX device and the devices were inoculated subcutaneously into both flanks of Nu/Nu-nude mice, to establish the Mini-PDX model. The inoculation day was defined as day 0. Mice were randomized in groups according to the bodyweights and the treatments were initiated at day 0.
(§6) • 6.4.1 Body weight were measured every day, the treatment periods of these studies were 7 days, at the termination, all mice were euthanized and the Mini-PDX devices were removed for CTG (cell viability) assay. Tumor relative proliferation rate (%) is the indication of the anti-tumor activity. • 6.4.2 When VCd7−Vd0>0, Tumor relative proliferation rate (%)=(VTd7−Vd0)/(VCd7−Vd0)×100%; When VCd7−Vd0<0, Tumor relative proliferation rate (%)=VTd7/VCd7×100% (VTd7: the cell viability on day 7 of treatment group; VCd7: the cell viability on day 7 of control group; Vdo: the cell viability on day 0).

[6] = test system: MDX154 Mini-PDX models (conditional reprogramming cells from a gallbladder carcinoma patient); test: Anti-tumor efficacy in MDX154 Mini-PDX model; conditions: Mini-PDX devices s.c. in nude mice, CTG cell viability day 7, doses, routes and schedules per Table 7
Text: as §1

[7] = test system: MDX168 Mini-PDX models (conditional reprogramming cells from a gallbladder carcinoma patient); test: Anti-tumor efficacy in MDX168 Mini-PDX model; conditions: Mini-PDX devices s.c. in nude mice, CTG cell viability day 7, doses, routes and schedules per Table 10
Text: as §2, §3, §4, §5, §6

[8] = test system: MDX186 Mini-PDX models (conditional reprogramming cells from a pancreatic cancer patient); test: Anti-tumor efficacy in MDX186 Mini-PDX model; conditions: Mini-PDX devices s.c. in nude mice, CTG cell viability day 7, doses, routes and schedules per Table 13
Text: as §2, §3, §4, §5, §6

[9] = test system: MDX203 Mini-PDX models (conditional reprogramming cells from a gallbladder carcinoma patient); test: Anti-tumor efficacy in MDX203 Mini-PDX model; conditions: Mini-PDX devices s.c. in nude mice, CTG cell viability day 7, doses, routes and schedules per Table 15
Text: as §2, §3, §4, §5, §6

Row | Molecule | T/C % (Tumor relative proliferation rate) [3] | T/C % (Tumor relative proliferation rate) [4] | T/C % (Tumor relative proliferation rate) [5] | T/C % (Tumor relative proliferation rate) [6] | T/C % (Tumor relative proliferation rate) [7] | T/C % (Tumor relative proliferation rate) [8] | T/C % (Tumor relative proliferation rate) [9] | also measured
1 | Cn1nnc2c(C(N)=O)ncn2c1=O [Temozolomide] | – | – | – | – | – | – | – | T/C % (Tumor relative proliferation rate) [1]: 102%; T/C % (Tumor relative proliferation rate) [2]: 29%
2 | Cc1nc2ccc(CN(C)c3ccc(C(=O)N[C@@H](CCC(=O)O)C(=O)O)s3)cc2c(=O)[nH]1 [Raltitrexed] | 92% | – | – | – | – | – | – | –
3 | COc1cc([C@@H]2c3cc4c(cc3[C@@H](O[C@@H]3O[C@@H]5CO[C@@H](C)O[C@H]5[C@H](O)[C@H]3O)[C@H]3COC(=O)[C@H]23)OCO4)cc(OC)c1O [Etoposide] | – | 109% | – | – | – | – | – | –
4 | Bevazulimab: Test drug of the MDX123 groups, printed Bevacizumab in Table 5 | 76% and 101% | – | – | – | – | – | – | –
5 | CC(=O)O[C@H]1C(=O)[C@@]2(C)[C@H]([C@H](OC(=O)c3ccccc3)[C@]3(O)C[C@H](OC(=O)[C@H](O)[C@@H](NC(=O)c4ccccc4)c4ccccc4)C(C)=C1C3(C)C)[C@]1(OC(C)=O)CO[C@@H]1C[C@@H]2O [Paclitaxel] | – | 79% | 52% | – | – | – | – | –
6 | CCc1c2c(nc3ccc(OC(=O)N4CCC(N5CCCCC5)CC4)cc13)-c1cc3c(c(=O)n1C2)COC(=O)[C@]3(O)CC [Irinotecan] | 68% | – | 72% | 227% | 12% | 5% | 48% | –
7 | O=C1[O][Pt]2([NH][C@@H]3CCCC[C@H]3[NH]2)[O]C1=O [Oxaliplatin] | 61% | – | 89% | 174% | 75% | 47% | 43% | –
8 | N.N.[Cl][Pt][Cl] [Cisplatin] | – | 128% | – | – | – | – | – | –
9 | COc1cccc2c1C(=O)c1c(O)c3c(c(O)c1C2=O)C[C@@](O)(C(=O)CO)C[C@@H]3O[C@H]1C[C@H](N)[C@@H](O)[C@H](C)O1 [Epirubicin] | – | 120% | – | – | – | – | – | –
10 | O=c1[nH]cc(F)c(=O)[nH]1 [5-Fu] | 75% | 80% | 103% | 111% | 146% | 90% | 83% | –
11 | Nc1ccn([C@@H]2O[C@H](CO)[C@@H](O)C2(F)F)c(=O)n1 [Gemcitabine] | – | – | – | 100% | 53% | 83% | 77% | –
